Values joined by “and” are separate entries in the source; they are usually repeats but may differ in a detail not shown here. Equal values may be shown once.

This assay has as its system IL-1β. The experiment in a line: CDAHFD mice: IL-1β immunohistochemical staining. Particulars: for IL-1β immunohistochemical staining (IL1b area), Average / IL-1β immunohistochemical staining (IL1b area), individual mouse: CDAHFD mice; for IL-1β immunohistochemical staining (IL1b area), Average: group average n=4, CDAHFD+Vehicle 8.870, Vehicle 2.958; for IL-1β immunohistochemical staining (IL1b area), individual mouse: individual animals No. 1-4 (Fig.4h). Format: in vivo, mouse. On the set-up: IL-1β immunohistochemical staining (IL1b area), individual mouse / IL-1β immunohistochemical staining (IL1b area), Average: unit not given here. From the text: C57BL/6 J male mice were purchased from the Japan SLC. Inc (Hamamatsu, Japan). Mice (5 weeks old) were fed Teklad Certitied Irradiated Global 18% protein rodent diet purchased from Dooyeol Biotech Co. Ltd (Seoul, South Korea) during the acclimation period. The liver fibrosis/inflammation-induced groups were CDAHFD-fed (A06071302, Research diet). […] All animal experiments complied with the relevant ethical regulations.
Mouse liver tissues were fixed in 4% formalin solution (Sigma–Aldrich, St. Louis, MO, USA) and embedded in paraffin. 4-μm-thick liver sections were deparaffinized in xylene, and rehydrated through descending grades of ethanol. To evaluate liver fibrosis, sections were stained with Sirius red solution and subjected to immunohistochemical staining. Tissue sections, after deparaffinization, underwent a 16-hour incubation in a solution containing 0.1% Direct Red 80 (365548, Sigma-Aldrich) dissolved in Picric acid (P-201, Spectrum Chemical, CA, USA) for Sirius red staining. The sections were briefly immersed in a 0.01 N HCl solution (1129, Ducksan, Republic of Korea) for 2 min. and then rinsed with distilled water for destaining. Subsequently, the sections underwent dehydration through […] grades of ethanol. Immunohistochemical staining was performed using the Polyview Plus HRP-DAB (anti-Rabbit) Kit (ENZ-KIT159-0150, ENZO Life Science, NY, USA) following the manufacturers’ instructions. Deparaffinized sections were boiled in IHC-TekTM Epitope Retrieval solution (IW-1100, IHCWORLD, MD, USA) for 45 min., cooled for 1 h, incubated in a 3% H2O2 solution (69355-0350, JUNSEI, Japan) for 15 min., washed, and then incubated overnight with primary antibodies (α-SMA, ab5694, Abcam, 1:500 dilution; TNF-α, ab6671, Abcam, 1:100 dilution and IL-1β, ab9722, Abcam, 1:100 dilution). Subsequently, the sections were treated with Polyview Plus HRP for 2 h and developed with DAB chromogen/substrate. Stained […] sections were confirmed by light microscopy (Olympus BX53 upright microscope, Tokyo, Japan). The degree of hepatic fibrosis and immunohistochemical staining was quantified by morphometric analysis of stained liver sections using NIH ImageJ software.

Take `Cc1nc2n(c(=O)c1CCN1CCC(=C3c4ccc(Cl)cc4CCc4cccnc43)CC1)CCCC2O` (centres unmarked) [Compound 11c]: for the setting “11c 5 mpk”, the “IL-1β immunohistochemical staining (IL1b area), Average” value is reported as 4.503; the “IL-1β immunohistochemical staining (IL1b area), individual mouse” value was 6.500 and 6.265 and 2.688 and 2.559. For the same compound, where the note is “11c 10mpk”, the “IL-1β immunohistochemical staining (IL1b area), Average” value was 3.142; the “IL-1β immunohistochemical staining (IL1b area), individual mouse” value was 2.228 and 4.531 and 2.370 and 3.440. Also, the “IL-1β expression (immunohistochemical staining)” value (CDAHFD-fed 11c vs CDAHFD-fed vehicle group) was “significant decrease”.

For the origin of these results see PMC10799935, “Discovery of a peripheral 5HT2A antagonist as a clinical candidate for metabolic dysfunction-associated steatohepatitis” (Nature Communications, 2024).
